Laboratory results reported in ChEMBL document CHEMBL2029220, “Oxaphosphinanes: new therapeutic perspectives for glioblastoma” (J Med Chem, 2012).
The source made the active and inactive calls. The calls are words filed in the database; no cut-off is given here.

Columns and labels:
C6 [1] = assay: Antiproliferative activity against rat C6 cells at 0.1 to 10 uM after 48 hrs by neutral red incorporation assay; assay type: functional, cell-based
[2] = Cytotoxicity against mouse astrocytes assessed as decrease in cell viability at 1 to 10 uM after 48 hrs by neutral red incorporation assay; assay type: cell-based; details: astrocyte
[3] = Cytotoxicity against mouse astrocytes assessed as decrease in cell viability at 1 to 10 uM after 48 hrs by propidium iodide incorporation assay; assay type: cell-based; details: astrocyte
[4] = Cytotoxicity against mouse astrocytes assessed as decrease in cell viability at 0.1 uM after 48 hrs by neutral red incorporation assay; assay type: cell-based; details: astrocyte
[5] = Cytotoxicity against mouse astrocytes assessed as decrease in cell viability at 0.1 uM after 48 hrs by propidium iodide incorporation assay; assay type: cell-based; details: astrocyte
[6] = Cytotoxicity against mouse astrocytes assessed as decrease in cell viability at 0.1 uM after 48 hrs by Hoechst 33342 staining; assay type: cell-based; details: astrocyte
C6 [7] = assay: Antiproliferative activity against rat C6 cells assessed as higher lowest toxic concentration after 48 hrs by MTT assay relative to control; assay type: functional
C6 [8] = assay: Antiproliferative activity against rat C6 cells at 10 uM after 48 hrs by MTT assay relative to control; assay type: functional
C6 [9] = assay: Antiproliferative activity against rat C6 cells at 1 uM after 48 hrs by MTT assay relative to control; assay type: functional
MDA-MB-435 [10] = assay: Antiproliferative activity against human MDA-MB-435 cells assessed as higher lowest toxic concentration after 48 hrs by MTT assay relative to control; assay type: functional
MDA-MB-435 [11] = assay: Antiproliferative activity against human MDA-MB-435 cells at 10 uM after 48 hrs by MTT assay relative to control; assay type: functional
MDA-MB-435 [12] = assay: Antiproliferative activity against human MDA-MB-435 cells at 1 uM after 48 hrs by MTT assay relative to control; assay type: functional
MDA-MB-435 [13] = assay: Antiproliferative activity against human MDA-MB-435 cells after 48 hrs by MTT assay; assay type: functional, cell-based; details: MDA-MB-435, 48 h
B16-F10 [14] = assay: Antiproliferative activity against mouse B16F10 cells at 10 uM after 48 hrs by MTT assay relative to control; assay type: functional
B16-F10 [15] = assay: Antiproliferative activity against mouse B16F10 cells at 1 uM after 48 hrs by MTT assay relative to control; assay type: functional
B16-F10 [16] = assay: Antiproliferative activity against mouse B16F10 cells after 48 hrs by MTT assay; assay type: functional, cell-based; details: B16-F10, 48 h
A-431 [17] = assay: Antiproliferative activity against human A431 cells at 10 uM after 48 hrs by MTT assay relative to control; assay type: functional
A-431 [18] = assay: Antiproliferative activity against human A431 cells at 1 uM after 48 hrs by MTT assay relative to control; assay type: functional
A-431 [19] = assay: Antiproliferative activity against human A431 cells after 48 hrs by MTT assay; assay type: functional, cell-based; details: A-431, 48 h
Huh-7 [20] = assay: Antiproliferative activity against human HuH7 cells at 10 uM after 48 hrs by MTT assay relative to control; assay type: functional
Huh-7 [21] = assay: Antiproliferative activity against human HuH7 cells at 1 uM after 48 hrs by MTT assay relative to control; assay type: functional
Huh-7 [22] = assay: Antiproliferative activity against human HuH7 cells after 48 hrs by MTT assay; assay type: functional, cell-based; details: Huh-7, 48 h
Caco-2 [23] = assay: Antiproliferative activity against human Caco2 cells at 10 uM after 48 hrs by MTT assay relative to control; assay type: functional
Caco-2 [24] = assay: Antiproliferative activity against human Caco2 cells at 1 uM after 48 hrs by MTT assay relative to control; assay type: functional
Caco-2 [25] = assay: Antiproliferative activity against human Caco2 cells after 48 hrs by MTT assay; assay type: functional, cell-based; details: Caco-2, 48 h
DU-145 [26] = assay: Antiproliferative activity against human DU145 cells at 10 uM after 48 hrs by MTT assay relative to control; assay type: functional
DU-145 [27] = assay: Antiproliferative activity against human DU145 cells at 1 uM after 48 hrs by MTT assay relative to control; assay type: functional, cell-based
DU-145 [28] = assay: Antiproliferative activity against human DU145 cells after 48 hrs by MTT assay; assay type: functional, cell-based; details: DU-145, 48 h
MDA-MB-231 [29] = assay: Antiproliferative activity against human MDA-MB-231 cells at 10 uM after 48 hrs by MTT assay relative to control; assay type: functional
MDA-MB-231 [30] = assay: Antiproliferative activity against human MDA-MB-231 cells at 1 uM after 48 hrs by MTT assay relative to control; assay type: functional
B16-F10 [31] = assay: Antiproliferative activity against mouse B16F10 cells assessed as higher lowest toxic concentration after 48 hrs by MTT assay relative to control; assay type: functional
A-431 [32] = assay: Antiproliferative activity against human A431 cells assessed as higher lowest toxic concentration after 48 hrs by MTT assay relative to control; assay type: functional
Huh-7 [33] = assay: Antiproliferative activity against human HuH7 cells assessed as higher lowest toxic concentration after 48 hrs by MTT assay relative to control; assay type: functional
Caco-2 [34] = assay: Antiproliferative activity against human Caco2 cells assessed as higher lowest toxic concentration after 48 hrs by MTT assay relative to control; assay type: functional
DU-145 [35] = assay: Antiproliferative activity against human DU145 cells assessed as higher lowest toxic concentration after 48 hrs by MTT assay relative to control; assay type: functional
MDA-MB-231 [36] = assay: Antiproliferative activity against human MDA-MB-231 cells assessed as higher lowest toxic concentration after 48 hrs by MTT assay relative to control; assay type: functional
SF-295 = assay: Antiproliferative activity against human SF295 cells at 10 uM after 24 hrs by SRB assay; assay type: functional, cell-based
SNB-75 = assay: Antiproliferative activity against human SNB75 cells at 10 uM after 24 hrs by SRB assay; assay type: functional, cell-based
Hs-578T = assay: Antiproliferative activity against human Hs 578T cells at 10 uM after 24 hrs by SRB assay; assay type: functional, cell-based
C6 [37] = assay: Antiproliferative activity against rat C6 cells at 0.1 to 100 uM after 48 hrs by neutral red incorporation assay; assay type: functional, cell-based
[38] = Cytotoxicity against mouse astrocytes assessed as decrease in cell viability at 1 to 100 uM after 48 hrs by neutral red incorporation assay; assay type: cell-based; details: astrocyte
[39] = Cytotoxicity against mouse astrocytes assessed as decrease in cell viability at 1 to 100 uM after 48 hrs by Hoechst 33342 staining; assay type: cell-based; details: astrocyte
[40] = Cytotoxicity against mouse astrocytes assessed as decrease in cell viability at 1 to 100 uM after 48 hrs by propidium iodide incorporation assay; assay type: cell-based; details: astrocyte
C6 [41] = assay: Cytotoxicity against rat C6 cells at 10 uM after 1 hr by LDH Assay; assay type: functional, cell-based
C6 [42] = assay: Cytotoxicity against rat C6 cells assessed as decrease in cell index at 100 uM after 1 hr; assay type: functional, cell-based
C6 [43] = assay: Cytotoxicity against rat C6 cells assessed as decrease in cell index at 50 uM after 2 hrs; assay type: functional, cell-based
C6 [44] = assay: Cytotoxicity against rat C6 cells assessed as decrease in cell index at 25 uM after 3 hrs; assay type: functional, cell-based
C6 [45] = assay: Cytotoxicity against rat C6 cells assessed as decrease in cell index at 10 uM after 3 hrs; assay type: functional, cell-based
C6 [46] = assay: Cytotoxicity against rat C6 cells assessed as decrease in cell index at 5 uM after 3 hrs; assay type: functional, cell-based
C6 [47] = assay: Cytotoxicity against rat C6 cells assessed as decrease in cell index at 1 uM after 3 hrs; assay type: functional, cell-based
C6 [48] = assay: Antiproliferative activity against rat C6 cells after 48 hrs by MTT assay; assay type: functional, cell-based; details: C6, 48 h
SF-268 = assay: Antiproliferative activity against human SF268 cells at 10 uM after 24 hrs by SRB assay; assay type: functional, cell-based
U-251 = assay: Antiproliferative activity against human U251 cells at 10 uM after 24 hrs by SRB assay; assay type: functional, cell-based
HOP-62 = assay: Antiproliferative activity against human HOP62 cells at 10 uM after 24 hrs by SRB assay; assay type: functional, cell-based
NCI-H522 = assay: Antiproliferative activity against human NCI-H522 cells at 10 uM after 24 hrs by SRB assay; assay type: functional, cell-based
SK-OV-3 = assay: Antiproliferative activity against human SKOV3 cells at 10 uM after 24 hrs by SRB assay; assay type: functional, cell-based
MDA-MB-468 = assay: Antiproliferative activity against human MDA-MB-468 cells at 10 uM after 24 hrs by SRB assay; assay type: functional, cell-based
LOX IMVI = assay: Antiproliferative activity against human LOXIMVI cells at 10 uM after 24 hrs by SRB assay; assay type: functional; details: read-out: GI
UO-31 = assay: Antiproliferative activity against human UO31 cells at 10 uM after 24 hrs by SRB assay; assay type: functional; details: UO-31, 24 h, read-out: GI

With `CC[C@]1(O)C[C@H]2CN(CCc3c([nH]c4ccccc34)[C@@](C(=O)OC)(c3cc4c(cc3OC)N(C=O)[C@H]3[C@@](O)(C(=O)OC)[C@H](OC(C)=O)[C@]5(CC)C=CCN6CC[C@]43[C@@H]65)C2)C1` [VINCRISTINE] the Activity (C6 [1]) was “Active”, the Activity [2] was 60% and the Activity [3] was “Toxic”. The Activity [4] was “Toxic”, the Activity [5] was “Toxic” and the Activity [6] was “Toxic”.
In the case of `O=[P@@]1(c2ccccc2)O[C@H](COCc2ccccc2)[C@@H](OCc2ccccc2)[C@H](OCc2ccccc2)[C@H]1O`, the Activity (C6 [7]) is reported as 0.001 µM, the Activity (C6 [8]) is reported as 82% and the Activity (C6 [9]) is reported as 63%. The Activity (MDA-MB-435 [10]) was 0.001 µM, the Activity (MDA-MB-435 [11]) was 42% and the Activity (MDA-MB-435 [12]) was 22%. For the same compound, the EC50 (MDA-MB-435 [13]) was 13.9 µM, the Activity (B16-F10 [14]) was 73% and the Activity (B16-F10 [15]) was 25%. For the same compound, the EC50 (B16-F10 [16]) was 4.9 µM, the Activity (A-431 [17]) was 32% and the Activity (A-431 [18]) was 18%. For the same compound, the EC50 (A-431 [19]) was 14.5 µM, the Activity (Huh-7 [20]) was 22% and the Activity (Huh-7 [21]) was 16%. The EC50 (Huh-7 [22]) was 30 µM, the Activity (Caco-2 [23]) was 43% and the Activity (Caco-2 [24]) was 10%. For the same compound, the EC50 (Caco-2 [25]) was 57 µM, the Activity (DU-145 [26]) was 40% and the Activity (DU-145 [27]) was “inactive”. For the same compound, the EC50 (DU-145 [28]) was 65 µM, the Activity (MDA-MB-231 [29]) was 30% and the Activity (MDA-MB-231 [30]) was 17%. For the same compound, the Activity (B16-F10 [31]) was 0.5 µM, the Activity (A-431 [32]) was 0.1 µM and the Activity (Huh-7 [33]) was 0.1 µM. The Activity (Caco-2 [34]) was 0.5 µM, the Activity (DU-145 [35]) was 5 µM and the Activity (MDA-MB-231 [36]) was 0.1 µM. The “growth inhibition (GI)” value (SF-295) was “Active”, the “growth inhibition (GI)” value (SNB-75) was “Active” and the “growth inhibition (GI)” value (Hs-578T) was “Active”. The Activity (C6 [37]) was “Active”, the Activity [38] was “Non-toxic” and the Activity [39] was “Non-toxic”. For the same compound, the Activity [40] was “Non-toxic”, the Activity (C6 [41]) was “Active” and the Activity (C6 [42]) was “Active”. The Activity (C6 [43]) was “Active”, the Activity (C6 [44]) was “Active” and the Activity (C6 [45]) was “inactive”. The Activity (C6 [46]) was “Active”, the Activity (C6 [47]) was “inactive” and the EC50 (C6 [48]) was 0.52 µM.
For `O=[P@@]1(c2ccccc2)O[C@H](COCc2ccccc2)[C@@H](OCc2ccccc2)[C@H](OCc2ccccc2)[C@@H]1O`, the Activity (C6 [7]) was 0.1 µM, the Activity (C6 [8]) was 31% and the Activity (MDA-MB-435 [10]) was 0.1 µM. The Activity (MDA-MB-435 [11]) was 43%, the Activity (B16-F10 [14]) was “inactive” and the Activity (A-431 [17]) was 33%. The Activity (Huh-7 [20]) was 55%, the Activity (Caco-2 [23]) was 15% and the Activity (DU-145 [26]) was 14%. For the same compound, the Activity (MDA-MB-231 [29]) was 18%, the Activity (B16-F10 [31]) was 25 µM and the Activity (A-431 [32]) was 5 µM. The Activity (Huh-7 [33]) was 0.1 µM, the Activity (Caco-2 [34]) was 5 µM and the Activity (DU-145 [35]) was 1 µM. For the same compound, the Activity (MDA-MB-231 [36]) was 5 µM, the “growth inhibition (GI)” value (SF-268) was “Active” and the “growth inhibition (GI)” value (U-251) was “Active”. For the same compound, the “growth inhibition (GI)” value (HOP-62) was “Active”, the “growth inhibition (GI)” value (NCI-H522) was “Active” and the “growth inhibition (GI)” value (SK-OV-3) was “Active”. The “growth inhibition (GI)” value (MDA-MB-468) was “Active”, the inhibition of growth at 10 µM (LOX IMVI) was 45% and the inhibition of growth at 10 µM (UO-31) was 50%. The Activity (C6 [37]) was “Active”, the Activity (C6 [41]) was “Active” and the EC50 (C6 [48]) was 23.8 µM.
